The results in this text go back to PubChem BioAssay (NCI).

The structures appear in SMILES notation.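 Results reflect a 48-hour exposure of cells in 96-well plates to compound at five concentrations. TGI: total growth inhibition.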

Among the test systems are SK-OV-3 ovarian; K-562 leukemia; M14 melanoma; DLD-1 colon; HCC-2998 colon; SF-295 CNS; SW-620 colon; ACHN renal; SN12C renal; EKVX NSCLC; KM12 colon; SNB-75 CNS; NCI-H23 lung; NCI-H226 lung; DU-145 prostate; HOP-92 NSCLC; BT-549 breast; CAKI-1 renal; SK-MEL-2 melanoma; T-47D breast.
Holding throughout (assay): inhibition of tumour cell growth, NCI panel, 48 h

With `COc1cc(-c2cc(=O)c3ccccc3[nH]2)cc(OC)c1OC`, the TGI in the assay on SK-OV-3 ovarian, in the assay with K-562 leukemia, with M14 melanoma, in the assay with DLD-1 colon, in the assay with HCC-2998 colon and in the assay with SF-295 CNS was greater than 75 µM in each case. The TGI in the assay with SW-620 colon, in the assay with ACHN renal, with SN12C renal, with EKVX NSCLC, in the assay on KM12 colon and with SNB-75 CNS was greater than 75 µM each time. The same molecule returned a TGI with NCI-H23 lung greater than 75 µM.

In the case of `COc1cccc(C(NC2=NCCC=N2)c2cc3c(cc2O)OCO3)c1O` (configuration not stated), the TGI is greater than 100 µM in the assay with NCI-H226 lung; greater than 100 µM in the assay with DU-145 prostate; greater than 100 µM in the assay with SK-OV-3 ovarian; 77.5 µM in the assay on HOP-92 NSCLC; 40.6 µM with K-562 leukemia; greater than 100 µM with M14 melanoma. The TGI with BT-549 breast was 33.3 µM; in the assay with CAKI-1 renal, greater than 100 µM; in the assay with HCC-2998 colon, 46.9 µM; with SF-295 CNS, greater than 100 µM; in the assay with SK-MEL-2 melanoma, 72.5 µM; with SW-620 colon, 41.8 µM. Further, the TGI in the assay on T-47D breast is 63.5 µM; with ACHN renal, greater than 100 µM; in the assay with SN12C renal, 41.4 µM; in the assay with EKVX NSCLC it was greater than 100 µM; with KM12 colon it was greater than 100 µM; in the assay on SNB-75 CNS it was 93.8 µM. Also, the TGI with NCI-H23 lung is greater than 100 µM.

With `c1n[nH]cc1C12C3C4C5C3C1C5C42` (configuration not stated), the TGI with NCI-H226 lung, in the assay on DU-145 prostate, in the assay on SK-OV-3 ovarian, with HOP-92 NSCLC, with K-562 leukemia and with M14 melanoma was greater than 100 µM in each case. The TGI with BT-549 breast, with CAKI-1 renal, in the assay on HCC-2998 colon, in the assay with SF-295 CNS, with SK-MEL-2 melanoma and in the assay on SW-620 colon was greater than 100 µM each time. Moreover, the TGI in the assay with T-47D breast, in the assay on ACHN renal, in the assay with SN12C renal, with EKVX NSCLC, in the assay on KM12 colon and in the assay with SNB-75 CNS was greater than 100 µM throughout. For the same molecule, in the assay on NCI-H23 lung, the TGI is greater than 100 µM.

In the case of `c1ccc(C2=C(c3ccccc3)Sc3nnc(CCCCCCCCc4nnc5n4NC(c4ccccc4)=C(c4ccccc4)S5)n3N2)cc1`, the TGI in the assay on NCI-H226 lung, in the assay on DU-145 prostate, in the assay on SK-OV-3 ovarian, in the assay with HOP-92 NSCLC, in the assay on K-562 leukemia and with M14 melanoma was greater than 100 µM each time. In addition, the TGI in the assay on BT-549 breast, with CAKI-1 renal, in the assay with HCC-2998 colon, with SF-295 CNS, in the assay on SK-MEL-2 melanoma and in the assay with SW-620 colon was greater than 100 µM in each case. Also, the TGI is 79.2 µM in the assay with T-47D breast; greater than 100 µM in the assay with ACHN renal; greater than 100 µM with SN12C renal; greater than 100 µM in the assay on EKVX NSCLC; greater than 100 µM in the assay with KM12 colon; greater than 100 µM in the assay on SNB-75 CNS. For the same molecule, the TGI with NCI-H23 lung was greater than 100 µM.

In the case of `CCOC(=O)/C=C\C(C#N)(C#N)N=Cc1ccsc1`, the TGI in the assay with NCI-H226 lung is 34.2 µM; in the assay with DU-145 prostate it was 30.7 µM; in the assay on SK-OV-3 ovarian, 35.6 µM; in the assay on HOP-92 NSCLC it was 4.52 µM; in the assay with K-562 leukemia, 14.3 µM; in the assay on M14 melanoma, 9.5 µM. Further, the TGI was 12.1 µM in the assay on BT-549 breast; 5.33 µM with CAKI-1 renal; 32.3 µM in the assay on HCC-2998 colon; 46.6 µM in the assay with SF-295 CNS; 33.1 µM in the assay with SK-MEL-2 melanoma; 4.11 µM with SW-620 colon. The TGI in the assay with T-47D breast was determined as 4.49 µM; with ACHN renal, 9.26 µM; in the assay with SN12C renal, 36.3 µM; in the assay on EKVX NSCLC, 30.6 µM; in the assay with KM12 colon it was 36.5 µM; with SNB-75 CNS it was 27.8 µM. In addition, the TGI with NCI-H23 lung was determined as 29.9 µM.

Turning to `CCCCN(C)C(=O)C1=C(C)NC(C)=C(C(=O)N(C)CCCC)C1`, the TGI in the assay on NCI-H226 lung, in the assay on DU-145 prostate, with SK-OV-3 ovarian, with HOP-92 NSCLC, in the assay on K-562 leukemia and in the assay with M14 melanoma was greater than 100 µM each time. Besides, the TGI with BT-549 breast, in the assay on CAKI-1 renal, in the assay on HCC-2998 colon, with SF-295 CNS, in the assay on SK-MEL-2 melanoma and in the assay with SW-620 colon was greater than 100 µM each time. Further, the TGI in the assay on T-47D breast, in the assay with ACHN renal, with SN12C renal, in the assay on EKVX NSCLC, with KM12 colon and in the assay on SNB-75 CNS was greater than 100 µM in each case. In addition, the TGI in the assay on NCI-H23 lung is greater than 100 µM.

Turning to `Oc1cccnc1/C=N/OCc1ccccc1`, the TGI in the assay on NCI-H226 lung, in the assay on SK-OV-3 ovarian, with K-562 leukemia, in the assay with M14 melanoma, with DLD-1 colon and with CAKI-1 renal was greater than 100 µM in each case. The TGI in the assay with HCC-2998 colon, in the assay on SF-295 CNS, with SK-MEL-2 melanoma, in the assay with SW-620 colon, with ACHN renal and in the assay with SN12C renal was greater than 100 µM in each case. The TGI in the assay with EKVX NSCLC, in the assay with KM12 colon and in the assay on SNB-75 CNS was greater than 100 µM in each case.

With `COC1=C2CC(C)CC(OC)C(OC(=O)CCCN)C(C)/C=C(\C)C(OC(N)=O)C(OC)/C=C\C=C(/C)C(=O)NC(=CC1=O)C2=O` (configuration not stated), the TGI in the assay on NCI-H226 lung came to 33.3 µM; in the assay on DU-145 prostate, 30.5 µM; in the assay with SK-OV-3 ovarian it was 35.1 µM; with HOP-92 NSCLC, 14.6 µM; in the assay on K-562 leukemia, 19.4 µM; with M14 melanoma it was 17.6 µM. Further, the TGI was 15.8 µM in the assay with BT-549 breast; 23.3 µM with CAKI-1 renal; 19.4 µM with HCC-2998 colon; 31.1 µM in the assay with SF-295 CNS; 26.9 µM in the assay on SK-MEL-2 melanoma; 17.7 µM in the assay with SW-620 colon. For the same molecule, the TGI with T-47D breast was 4.65 µM; with ACHN renal, 17.8 µM; in the assay with SN12C renal, 16.1 µM; in the assay with EKVX NSCLC, 26.6 µM; with KM12 colon, 25.7 µM; in the assay with SNB-75 CNS, 36.3 µM. In the assay with NCI-H23 lung, the TGI was found to be 14.4 µM.
